{"source": "patent US11390592B2", "about": "“Method for producing the crystalline form of modification a of calcobutrol” (BAYER PHARMA AKTIENGESELLSCHAFT, priority 2016, dated 2022)", "type_in_all_cases": "physicochemical", "key": {"[1]": {"experiment": "Storage stability and hygroscopicity of the polymorphic forms", "conditions": "solid"}, "[2]": {"experiment": "Hygroscopic properties: exposure to ambient air, water content by Karl-Fischer titration", "conditions": "ca. 20° C., ca. 60% rel. humidity", "experimental": "The hygroscopic properties of three different samples of Calcobutrol were determined, one sample was prepared by the method described in Inorganic Chemistry 1997, 36, 6086-6093 (Example 5), one sample was prepared by the method described in WO2011/054827A1 (Example 6), and one sample was prepared by the method according to the present invention (Example 2).\n2 g of each sample were exposed to ambient air (ca. 20° C., ca. 60% rel. humidity). The water content was measured by means of Karl-Fischer-Titration immediately after initial exposure (t=0), three hours (t=3 h), seven hours (t=7 h), and thirty one hours (t=31 h) after initial exposure."}, "[3]": {"experiment": "Solubility in water of the polymorphic modifications"}}}
{"compound": "O=C([O-])CN1CCN(CC(=O)[O-])CCN(C(CO)C(O)CO)CCN(CC(=O)O)CC1.[Ca+2]", "note": "(stereo not drawn) [Modification A, calcium complex of dihydroxy-hydroxy-methylpropyl-tetraazacyclododecane-triacetic acid (calcobutrol)]", "values": [{"measurement": "storage stability", "setting": "[1]", "result": "good storage stability"}, {"measurement": "storage stability", "setting": "[1]; listed as calcobutrol of modification A", "result": "storage-stable"}, {"measurement": "weight-% water t = 0", "setting": "[2]; 2 g exposed to ambient air, immediately after initial exposure", "result": 3.0, "unit": "%"}, {"measurement": "weight-% water t = 7 h", "setting": "[2]; ambient air, seven hours after initial exposure", "result": 4.3, "unit": "%"}, {"measurement": "weight-% water t = 31 h", "setting": "[2]; ambient air, thirty one hours after initial exposure", "result": 4.3, "unit": "%"}, {"measurement": "weight-% water t = 3 h", "setting": "[2]; ambient air, three hours after initial exposure", "result": 4.5, "unit": "%"}, {"measurement": "Solubility in water", "setting": "[3]", "result": ">500", "unit": "mg/mL"}, {"measurement": "solubility in water (appearance)", "setting": "[3]", "result": "colourlessly soluble in water"}]}
{"compound": "O=C([O-])CN1CCN(CC(=O)[O-])CCN(C(CO)C(O)CO)CCN(CC(=O)O)CC1.[Ca+2]", "note": "(stereo not drawn) [Modification B, calcium complex of dihydroxy-hydroxy-methylpropyl-tetraazacyclododecane-triacetic acid (calcobutrol)]", "values": [{"measurement": "hygroscopicity", "setting": "[1]", "result": "to a large extent tend to be hygroscopic"}]}
